The values that follow come from patent US10144737B2 (ETERNITY BIOSCIENCE INC., priority 2014, dated 2018).

Broadly, the GI50 is the concentration giving 50% growth inhibition. One may read the IC50 as the concentration that gives 50% inhibition. A low value points to inhibition by little substance.

One experiment has as its system TMD-8 cells. The experiment is described as follows: Cell proliferation assay (CellTiter-Glo), TMD-8 cells. The experiment is classed as cell-based. The settings on record: Homo sapiens, TMD8, 120 h, 5-day treatment, read-out: TMD8 cell growth (GI50 μM). The method in brief:
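TMD-8 cells seeded at 5,000–10,000/well, cultured overnight, then exposed to compound (vehicle 0.5% DMSO) for 5 days at 37 °C. Growth read by CellTiter-Glo luminescence; IC50 from log concentration versus % growth inhibition relative to vehicle.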

In another experiment the target is T1, Btk (Homo sapiens, UniProt Q06187).
T1 construct: purchased Promega (Madison, Wis.)
T1 sequence (Q06187 whole entry): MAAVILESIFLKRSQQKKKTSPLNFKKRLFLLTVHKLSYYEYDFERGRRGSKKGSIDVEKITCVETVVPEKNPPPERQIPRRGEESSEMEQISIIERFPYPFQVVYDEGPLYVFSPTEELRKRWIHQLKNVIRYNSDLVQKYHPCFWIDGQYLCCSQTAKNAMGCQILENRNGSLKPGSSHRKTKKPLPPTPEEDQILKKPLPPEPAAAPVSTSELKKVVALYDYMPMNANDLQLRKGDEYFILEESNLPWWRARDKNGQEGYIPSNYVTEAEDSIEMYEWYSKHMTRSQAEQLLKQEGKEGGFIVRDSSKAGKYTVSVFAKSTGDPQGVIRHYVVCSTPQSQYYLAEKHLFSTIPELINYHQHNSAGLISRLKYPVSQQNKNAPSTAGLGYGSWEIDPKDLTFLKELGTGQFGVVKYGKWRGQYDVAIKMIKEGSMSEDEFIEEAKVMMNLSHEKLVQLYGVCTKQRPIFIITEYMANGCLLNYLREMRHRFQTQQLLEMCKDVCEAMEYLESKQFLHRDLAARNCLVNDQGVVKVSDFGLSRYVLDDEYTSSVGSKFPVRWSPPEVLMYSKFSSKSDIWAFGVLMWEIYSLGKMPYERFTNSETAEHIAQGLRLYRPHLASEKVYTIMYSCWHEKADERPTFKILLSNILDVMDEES
As to the kind of experiment: Btk kinase assay (ADP-Glo). The settings on record: ADP-Glo Btk kinase assay kit; ATP 1.2 μM; 60 minutes at room temperature. The experiment is classed as biochemical. The method in brief: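 Luminescent ADP detection after a 60 min reaction at 22±1 °C containing Btk 2 ng/μl, 1.2 μM ATP, 0.3 μM poly GT peptide and 1.4 mM MnCl2. IC50 from log concentration versus percent inhibition relative to DMSO vehicle.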

The structures appear in SMILES notation.

As for `C=CC(=O)N1CCC(Nc2ncnc3[nH]c(C#CCOc4cccc(F)c4)nc23)C1` (stereo not shown) [Example 15, 1-(3-((8-(3-(3-fluorophenoxy)prop-1-yn-1-yl)-9H-purin-6-yl)amino)pyrrolidin-1-yl)prop-2-en-1-one], the concentration for 50% growth inhibition (GI50) in the experiment with TMD-8 cells is 0.019 µM. The compound also registered an IC50 against Btk of 0.0148 µM.
Regarding `C=CC(=O)N1CC[C@@H](Nc2ncnc3[nH]c(C#CC4CCCCC4)cc23)C1` [Example 78, (R)-1-(3-((6-(cyclohexylethynyl)-7H-pyrrolo[2,3-d]pyrimidin-4-yl)amino)pyrrolidin-1-yl)prop-2-en-1-one], the GI50 in the experiment with TMD-8 cells came out at 2.68 µM. The IC50 against Btk came out at 0.702 µM.
Consider `C=CC(=O)N1CCC(Nc2ncnc3[nH]c(C#CCOc4cc(F)cc(F)c4)nc23)C1` (stereo not shown) [Example 17, 1-(3-((8-(3-(3,5-difluorophenoxy)prop-1-yn-1-yl)-9H-purin-6-yl)amino)pyrrolidin-1-yl)prop-2-en-1-one], for which, in the experiment with TMD-8 cells, the GI50 worked out at 0.25 µM. The same compound returned an IC50 against Btk of 0.212 µM.
Consider `C=CC(=O)N1CC[C@@H](Nc2ncnc3[nH]c(C#Cc4ccc(C(F)(F)F)cc4)cc23)C1` [Example 67, (R)-1-(3-((6-((4-trifluoromethylphenyl)ethynyl)-7H-pyrrolo[2,3-d]pyrimidin-4-yl)amino)pyrrolidin-1-yl)prop-2-en-1-one], for which the GI50 with TMD-8 cells was determined as 0.004 µM. The compound also returned an IC50 at Btk of 0.272 µM.
For the compound `C=CC(=O)Nc1cccc(Nc2ncnc3[nH]c(C#Cc4ccccc4)cc23)c1` [Example 103, N-(3-((6-(phenylethynyl)-7H-pyrrolo[2,3-d]pyrimidin-4-yl)amino)phenyl)acrylamide], the GI50 in the experiment with TMD-8 cells was 0.079 µM. For the same compound, half-maximal inhibition on Btk (IC50) required 0.0003 µM.
